Activity calls are given as the source filed them. The rule behind the calls is not given here.
How the values were obtained:
Type in all cases: functional
Mus musculus = assay: Antinarcotic activity in morphine-dependent C57BL/6 Mus musculus (mouse) assessed as decrease in naloxane-induced jumping frquency at 20 mg/kg, ip administered QD at 30 min prior to morphine-injection for 7 days followed by naloxane-challenge at 6 hr after last morphine-injection relative to control; design: scale not given: the % may be the effect or the level left
[1] = test system: Radical scavenging activity; assay: Antioxidant activity assessed as DPPH radical scavenging activity at 1 mM after 25 min by spectrophotometric analysis
Cortical neurone = assay: Neuroprotective activity in ICR Mus musculus (mouse) cortical neurons assessed as protection against glutamate-induced toxicity at 5 to 20 uM after 24 hr by LDH assay

Molecule `COc1cc(/C=C/C(=O)N2CCN(C(=O)/C=C/c3cc(OC)c(OC)c(OC)c3)CC2)cc(OC)c1OC` has an Activity (Mus musculus; route intraperitoneal) of 80%.
In the case of `COc1cc(/C=C/C(=O)O)cc(OC)c1OC`, the Activity (Mus musculus) is reported as “Active”.
Work on `COc1cc(/C=C/C(=O)N2CCOCC2)cc(OC)c1OC` yielded an Activity (Mus musculus; route intraperitoneal) of 80% and an Activity [1] greater than 20%.
With `COc1cc(/C=C/C(=O)N2CCSCC2)cc(OC)c1OC` the Activity (Mus musculus; route intraperitoneal) was 80%, the Activity [1] was greater than 20% and the Activity (Cortical neurone) was “Active”.
Molecule `COc1cc(/C=C/C(=O)NCCCN2CCCC2=O)cc(OC)c1OC` has an Activity (Mus musculus; route intraperitoneal) of 80% and an Activity [1] greater than 20%.
`COc1cc(/C=C/C(=O)N2CCN(C(=O)c3ccccc3)CC2)cc(OC)c1OC` was tested, and the Activity (Mus musculus; route intraperitoneal) was 80%, the Activity [1] was greater than 20% and the Activity (Cortical neurone) was “Active”.
`COc1cc(/C=C/C(=O)NCCO)cc(OC)c1OC` was tested, and the Activity (Mus musculus; route intraperitoneal) was 80%, the Activity [1] was greater than 20% and the Activity (Cortical neurone) was “Active”.
